Tested on: lung cancer organoids from lung cancer tissue exhibiting EGFR mutations
Experiment: Drug sensitivity test of lung cancer organoids (CellTiter-Glo 3D cell viability; calcein-AM staining)
Assay type: cell-based, human
Conditions: for AUC (area under the curve) / IC50: EGFR-mutant lung cancer organoids, six concentrations, drug treatment for 3 days, viability on day 6; for IC50: Homo sapiens; for sensitivity of lung cancer organoids from EGFR-mutant lung cancer patients: result in words, EGFR-TKIs vs ALK inhibitors, consistent with the clinical response of EGFR-mutant patients
Experimental: The experimental overview is conceptually illustrated in FIG. 12.
The organoids were harvested and mixed with Matrigel (Corning Life Sciences, USA, catalog #354263) and seeded onto pillar plates at 5×10^5 cells/mL. Next, the Matrigel-cell mixture (1.5 μL) was spotted onto the coated pillar plates using a pre-cooled ASFA spotter (Medical & Bio Decision, Suwon, Republic of Korea) and incubated in an inverted position at 4 °C for 15 minutes to allow cells to aggregate at the bottom of the spots. The plates were then placed in humidity chamber at 37 °C to allow the spot to gel. Subsequently, the plates were combined with well plates containing fresh medium. After 3 days, cells were treated with EGFR or ALK targeting agents at six concentrations using the ASFA spotter. Cell viability was measured by staining with 0.5 μM calcein-AM at 37 °C for 1 hour, followed by two PBS washes for 20 minutes. The organoid spots were scanned using an automated optical fluorescence scanner (ASFA scanner, Medical & Bio Decision, Korea) The scanner's microscope automatically focused on cell spots by moving in the z-direction, capturing 384 individual images at 4× magnification from one stained pillar/well plate. The images were then integrated into a single JPEG image for data analysis. The scanned images were analyzed using CellAnalyzer version 2.0 (Medical & Bio Decision). After scanning the cells, the organoid spots were transferred to new 384-well plates containing CellTiter-Glo 3D reagent to measure intracellular ATP levels via luminescence activity.
In brief, a total of 5000 single cells per pillar of the plate were seeded in 1.5 μL medium and cultured for 3 days. Subsequently, various EGFR-TKIs and ALK inhibitors were administered at multiple doses for 3 days to determine IC50 and AUC (area under the curve). On day 6, organoid viability was confirmed using fluorescent dye Calcein-AM (see FIG. 13), and survival rates for each drug were measured using CellTiter-Glo 3D cell viability assay (G9681; Promega) (see FIG. 14).

IC50 [nM] | SMILES | AUC (area under the curve) | sensitivity of lung cancer organoids from EGFR-mutant lung cancer patients
790 | CN(C)C/C=C/C(=O)Nc1cc2c(Nc3ccc(F)c(Cl)c3)ncnc2cc1O[C@H]1CCOC1 [Afatinib] | 125.1 | showed sensitivity
> 50000 | CCc1cc2c(cc1N1CCC(N3CCOCC3)CC1)C(C)(C)c1[nH]c3cc(C#N)ccc3c1C2=O [Alectinib] | 240.9 | –
7100 | C[C@@H](Oc1cc(-c2cnn(C3CCNCC3)c2)cnc1N)c1c(Cl)ccc(F)c1Cl [Crizotinib] | 177.2 | –

SMILES | IC50 [nM] | AUC (area under the curve) | sensitivity of lung cancer organoids from EGFR-mutant lung cancer patients
C=CC(=O)Nc1cc(Nc2nccc(-c3cn(C)c4ccccc34)n2)c(OC)cc1N(C)CCN(C)C [Osimertinib] | 1800 | 133.9 | showed sensitivity

— US20260327570A1, “METHOD FOR PRODUCING ORGANOIDS” (Chungnam National University Hospital, priority 2022, published 2026)
